Test results published in ChEMBL document CHEMBL1201862, “PubChem BioAssay data set” (2004).
Activity calls are given as the source filed them. Cut-off read from the data, not from the text of the source, for most assays here: actives have a measured IC50 and inactives only a lower limit.

Key:
Type in all cases: functional
[1] = target: T1, Replicative DNA helicase DnaB (Mycobacterium tuberculosis, UniProt P9WMR3); assay: DnaB intein splicing inhibitors, dose response, biochemical, cell-free fluorescence (AID 449749)
T1 sequence (P9WMR3 whole entry): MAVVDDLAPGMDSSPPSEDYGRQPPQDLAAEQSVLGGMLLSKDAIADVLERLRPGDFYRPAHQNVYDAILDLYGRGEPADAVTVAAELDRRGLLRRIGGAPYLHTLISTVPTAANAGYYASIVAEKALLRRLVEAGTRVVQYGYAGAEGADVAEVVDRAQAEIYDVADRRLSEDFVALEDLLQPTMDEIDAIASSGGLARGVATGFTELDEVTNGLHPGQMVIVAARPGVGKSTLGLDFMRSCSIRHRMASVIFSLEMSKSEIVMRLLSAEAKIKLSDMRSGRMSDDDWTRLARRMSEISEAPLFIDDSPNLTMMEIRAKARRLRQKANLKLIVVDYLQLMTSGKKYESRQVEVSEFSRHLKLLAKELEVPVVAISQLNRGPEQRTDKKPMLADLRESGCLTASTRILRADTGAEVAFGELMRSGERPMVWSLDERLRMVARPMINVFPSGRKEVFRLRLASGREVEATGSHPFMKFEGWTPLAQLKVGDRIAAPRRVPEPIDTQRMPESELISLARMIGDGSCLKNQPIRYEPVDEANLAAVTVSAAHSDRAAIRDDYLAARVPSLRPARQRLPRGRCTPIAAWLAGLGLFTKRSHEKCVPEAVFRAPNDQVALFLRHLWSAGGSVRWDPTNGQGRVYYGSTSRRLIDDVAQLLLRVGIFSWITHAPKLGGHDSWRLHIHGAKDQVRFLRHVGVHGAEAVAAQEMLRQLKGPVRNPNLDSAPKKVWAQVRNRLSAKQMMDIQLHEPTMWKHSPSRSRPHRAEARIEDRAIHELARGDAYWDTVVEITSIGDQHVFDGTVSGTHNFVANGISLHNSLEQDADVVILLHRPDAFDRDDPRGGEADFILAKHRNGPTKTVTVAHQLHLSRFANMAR

[2] = target: T2, Sentrin-specific protease 8 (Homo sapiens, UniProt Q96LD8);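 note: luminescence read-out of SENP8 inhibition, dose-response confirmation following an ultra-high-throughput screen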
T2 sequence (Q96LD8 whole entry): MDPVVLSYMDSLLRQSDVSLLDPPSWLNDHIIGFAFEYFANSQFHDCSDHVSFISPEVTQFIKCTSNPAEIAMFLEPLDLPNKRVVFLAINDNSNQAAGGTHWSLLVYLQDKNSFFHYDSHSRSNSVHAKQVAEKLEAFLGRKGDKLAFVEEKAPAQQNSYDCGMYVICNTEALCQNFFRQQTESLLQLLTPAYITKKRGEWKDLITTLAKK

[3] = target: T3, Sentrin-specific protease 7 (Homo sapiens, UniProt Q9BQF6);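 note: Luminescence-based dose-response confirmation of ultra-high-throughput screening hits, measuring inhibition of SENP7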
T3 sequence (Q9BQF6 whole entry): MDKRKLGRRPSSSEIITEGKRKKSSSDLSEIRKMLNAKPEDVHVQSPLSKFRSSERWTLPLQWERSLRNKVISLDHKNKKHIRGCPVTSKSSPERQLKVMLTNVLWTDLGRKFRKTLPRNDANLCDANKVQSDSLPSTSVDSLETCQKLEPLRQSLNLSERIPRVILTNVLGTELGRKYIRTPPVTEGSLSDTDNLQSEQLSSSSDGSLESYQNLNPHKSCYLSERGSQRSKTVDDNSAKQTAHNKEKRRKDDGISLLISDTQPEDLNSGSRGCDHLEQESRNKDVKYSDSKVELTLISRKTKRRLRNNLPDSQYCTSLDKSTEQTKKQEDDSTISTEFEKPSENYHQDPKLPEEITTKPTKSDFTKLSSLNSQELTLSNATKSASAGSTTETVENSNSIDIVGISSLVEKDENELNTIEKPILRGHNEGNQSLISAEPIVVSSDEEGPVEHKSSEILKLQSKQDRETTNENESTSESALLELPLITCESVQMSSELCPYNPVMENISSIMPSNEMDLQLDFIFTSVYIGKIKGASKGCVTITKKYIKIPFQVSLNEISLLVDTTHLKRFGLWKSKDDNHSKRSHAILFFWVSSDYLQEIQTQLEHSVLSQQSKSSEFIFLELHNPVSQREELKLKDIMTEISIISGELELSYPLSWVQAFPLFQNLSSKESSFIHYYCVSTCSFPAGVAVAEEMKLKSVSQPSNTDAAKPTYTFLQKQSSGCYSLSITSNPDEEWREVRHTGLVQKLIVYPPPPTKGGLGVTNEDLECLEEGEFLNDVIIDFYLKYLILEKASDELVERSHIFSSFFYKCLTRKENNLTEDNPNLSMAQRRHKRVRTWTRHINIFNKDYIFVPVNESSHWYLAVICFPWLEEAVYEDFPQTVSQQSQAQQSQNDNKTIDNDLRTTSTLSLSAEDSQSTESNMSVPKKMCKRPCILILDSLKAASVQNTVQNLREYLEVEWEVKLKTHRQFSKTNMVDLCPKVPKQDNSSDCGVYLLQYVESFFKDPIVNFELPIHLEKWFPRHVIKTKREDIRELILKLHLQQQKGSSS

| SMILES | AC50 [1] | IC50 [2] | IC50 [3] |
| --- | --- | --- | --- |
| O=C1C=C(Nc2ccccc2C(=O)O)c2ccccc2C1=O | 2.21 µM (active) | 3.3 µM (active) | 7.86 µM (active) |
| O=C1C(=O)c2ccccc2C(O)=C1CCCCl | 6.36 µM (active) | 14.4 µM (active) | 9.05 µM (active) |
| COc1ccc(NC(=S)Nc2ccc3nsnc3c2)cc1 | > 120 µM (inactive) | 2.74 µM (active) | 4.08 µM (active) |
| CC(C)(C)c1cc[n+](C2=C([N-]S(=O)(=O)c3ccccc3)C(=O)c3ccccc3C2=O)cc1 | 9.28 µM (active) | 13.6 µM (active) | 13.5 µM (active) |
